Columns and labels:
[1] = system: SW620 cells; test: Promoter reporter panel (transient luciferase constructs), SW620; assay type: cell-based, human; conditions: parent SW620, 350 nM, 6 h
Description: Transcription factor activity was assayed in cell lines using 45 different plasmid reporter constructs encoding firefly luciferase under the control of a basal promoter element downstream of specific transcriptional response elements (Qiagen, Germany; Supporting Table S1). Firefly luciferase under the control of basal promoter element alone was used to establish the baseline signal and cotransfection of a construct expressing renilla luciferase from a CMV-promoter was used as a transfection control. Cells were reverse-transfected with reporter plasmids, compounds were added 42 h post transfection and reporter activity quantified following 6 h continuous exposure. […]
multichannel pipette. Where indicated, spheroids were treated at day 4. At days 3, 6 and 8 following compound addition, 50% medium replenishment was performed. Cell-titre Glo analyses were carried out at day 14 for luminescence measurement on a Synergy 2 SL Luminescence microplate reader (BioTek, UK). Values are means ± […]
Single and double knockout clones of human SW620 colon cancer cells lacking CDK8, CDK19 or both kinases were generated using a CRISPR/Cas9 knockout strategy.
Constructs for knockout carried a Cas9 gene, a fluorescent protein gene (GFP for CDK8 and RFP for CDK19) and sgRNAs to human CDK8 […]
Single and double CDK8 and CDK19 knockout clones were generated by transiently transfecting SW620 cells using Lipofectamine 3000 (Thermo Fisher Scientific, UK).
Cells were harvested 72 hours post-transfection and the top 1% GFP, RFP or GFP/RFP positive cells were sorted by FACS into 96 well plates at one cell/well.
Knockout clones were identified by a capillary immunoassay for CDK8 or CDK19 […]
kinase mutant (CDK8D173A)2 were established by transfection of CDK8 CRISPR knockout clone 1 with a pCMV6-CDK8-cMyc-FLAG construct.
Transcription factor promoter reporter assays were carried out to define signalling pathways and biological processes modulated by CDK8/19 ligands. […]
and body weights recorded.

[2] = system: MED14 phosphorylation in COLO205 cells; test: CDK-phospho-motif immunoprecipitation and MED14 immunoblot, COLO205; assay type: cell-based, human; conditions: COLO205, 350 nM, 6 h
Text: In the absence of phospho-specific antibodies targeting these sites, we employed immunoprecipitation using CDK-phospho-motif antibodies followed by immunoblotting with a MED14 antibody to validate the observed reduction in MED14 phosphorylation. […] In contrast, phosphorylation of MED13 and MED26 was reduced in only 2 of 5 and 5 of 10 CDK-phospho-motif peptides, respectively (Figure E and Supporting Figure S2C). This heterogeneous phosphorylation pattern complicates validation using motif-based immunoprecipitation, as reductions at specific phospho-sites may be obscured by unchanged CDK-motif phosphorylation at other sites. […]
Cell monolayers were washed with PBS twice and lysed using a modified RIPA buffer, mRIPA (50 mM TRIS-HCl pH 7.4, 1% NP-40 substitute, 0.5% NaDOC, 150 mM NaCl, 1 mM EDTA, 0.02% SDS and 1:100 dilution of proteinase and phosphatase inhibitor cocktail, (#5872, Cell Signaling Technology) with overnight freezing at -80 °C and sonication of the cell pellet. Lysates were clarified by centrifugation and supernatants collected and protein concentration determined by a bicinchoninic acid (BCA) assay. […]
= biological repeats; * = phosphorylated residue). (B) STAT1SER727 phosphorylation in COLO205 or SW620 cell lysates detected using two different phospho-STAT1SER727-specific antibodies following treatment with 350 nM CCT251545 for 6 hours. […]

Question: With `Cn1cc(-c2ccc(-c3cncc(Cl)c3N3CCC4(CCNC4=O)CC3)cc2)cn1` [CCT251545] as the compound, how does the p53 reporter activity [1] read?
Answer: significant decrease

Question: What about the “AARE promoter reporter activity relative to vehicle control” value ([1]; mean ± s.e.m) of the same compound?
Answer: 0.82 ± 0.06

Question: What about the “AP1 promoter reporter activity relative to vehicle control” value ([1]; mean ± s.e.m) of the same compound?
Answer: 0.78 ± 0.04

Question: What about the “MED14 phosphorylation (CDK-phospho-motif immunoprecipitation, MED14 immunoblot)” value [2] of the same compound?
Answer: decrease was evident

Source: PMC12281475, “Mediator Kinase Inhibitor Selectivity and Activity in Colorectal Cancer” (ACS Chemical Biology, 2025)
